What all share (assay): inhibition of tumour cell growth, NCI panel, 48 h
Test [1] relates to SK-MEL-28.
In test [2] the test system is OVCAR-3.
For test [3], the system named is SNB-75.
Test [4] deals with SNB-19.
For test [5], the system named is RPMI-8226.
Test [6] relates to 786-0.
Test [7] has as its system HOP-92.
The subject of test [8] is HL-60.
The subject of test [9] is K562.
In test [10] the test system is HCT-15.
For test [11], the system named is RXF 393.
The subject of test [12] is A549.
The subject of test [13] is SK-MEL-5.
In test [14] the test system is Hs-578T.
In test [15] the test system is LOX IMVI.
The subject of test [16] is SK-OV-3.
Test [17] deals with A498.
The subject of test [18] is MDA-MB-435.
Test [19] relates to T47D.
Test [20] deals with NCI-H226.

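Five concentrations, 48 hours, 96-well plates. Abbreviation: GI50, concentration required for 50% inhibition of growth.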 The source made the active and inactive calls. Cut-off read from the data, not from the text of the source: active = GI50 up to about 1.1 µM and inactive = higher. Where only a bound is given, the exact number is not on record here.

On to `O=C(C=P(c1ccccc1)(c1ccccc1)c1ccccc1)c1ccc(-c2cccc([N+](=O)[O-])c2)s1`, for which the GI50 in [1] was 44 µM (inactive); in [2], 32.7 µM (inactive); in [3], 24 µM (inactive); in test [4], > 100 µM (inactive); in test [5], 19.5 µM (inactive); in test [6], > 100 µM (inactive). Besides, the GI50 in test [7] was 16.4 µM (inactive); in [8], 26 µM (inactive); in test [9], 37 µM (inactive); in test [10], 41.1 µM; in [11], 70.8 µM (inactive); in test [12], 57.5 µM (inactive). Also, the GI50 in test [13] was 29.9 µM (inactive); in [14], 52.5 µM (inactive); in test [15], 67 µM (inactive); in [16], 36.1 µM (inactive); in test [17], 35.2 µM (inactive); in [18] it was 51.5 µM (inactive).

Regarding `COC1=CC(=O)c2c(CCNC(=O)OCc3ccccc3)n[nH]c2C1=O`, the GI50 in test [1] is 12.1 µM (inactive); in test [2], 18.1 µM (inactive); in test [4] it was 14.7 µM (inactive); in test [5] it was 13 µM (inactive); in [6], 17.5 µM (inactive); in test [8], 16.1 µM (inactive). For the same compound, the GI50 was 16 µM (inactive) in test [9]; 2.3 µM (inactive) in test [19]; 12.6 µM in test [10]; 19.6 µM (inactive) in [12]; 3.97 µM (inactive) in test [13]; 24.2 µM (inactive) in test [14]. Besides, the GI50 was 4.54 µM (inactive) in [15], 17.5 µM (inactive) in test [17] and 2.16 µM (inactive) in test [18].

For `Cc1cnc2c(c1)C(=O)N(c1ccc(Br)cc1)S2(=O)=O`, the GI50 in [1] was > 100 µM (inactive); in test [2], > 100 µM (inactive); in test [3], 37.3 µM (inactive); in [4], > 100 µM (inactive); in test [5], > 100 µM (inactive); in test [6], > 100 µM (inactive). Also, the GI50 in test [8] was 30.1 µM (inactive); in [19], > 100 µM (inactive); in test [10], more than 100 µM; in test [12] it was > 100 µM (inactive); in test [13] it was > 100 µM (inactive); in [20], 78 µM (inactive). In addition, the GI50 was 24.5 µM (inactive) in [14], > 100 µM (inactive) in test [15], > 100 µM (inactive) in test [16] and > 100 µM (inactive) in test [18].

For `O=C1Nc2ccccc2/C1=N/N=C1NCCCCN1`, the GI50 in [2], in test [3], in test [4], in test [5], in test [6] and in test [7] was > 100 µM (inactive) each time. For the same compound, the GI50 is > 100 µM (inactive) in [9]; 57.8 µM (inactive) in [19]; more than 100 µM in test [10]; > 100 µM (inactive) in test [12]; > 100 µM (inactive) in test [13]; > 100 µM (inactive) in test [20]. In addition, the GI50 in test [14], in test [15], in test [16], in test [17] and in test [18] was > 100 µM (inactive) each time.

As for `CCOP(=O)(OCC)C(F)(F)c1ccc(CC(NC(=O)OC(C)(C)C)C(=O)O)cc1` (configuration not stated), the GI50 in test [1], in test [2], in [3], in test [4], in test [6] and in test [7] was > 10 µM (inactive) throughout. Besides, the GI50 in [9] is > 10 µM (inactive); in test [19] it was > 10 µM (inactive); in [10], more than 10 µM; in test [12], > 10 µM (inactive); in test [13], > 10 µM (inactive); in [20] it was > 10 µM (inactive). The GI50 in test [14], in test [15], in test [16], in [17] and in test [18] was > 10 µM (inactive) throughout.

Turning to `Cc1cc2c(cc1C)[n+]([O-])c(NCCCN(C)C)c(C#N)[n+]2[O-]`, the GI50 is > 100 µM (inactive) in test [1]; 76.4 µM (inactive) in test [2]; 85.7 µM (inactive) in test [3]; > 100 µM (inactive) in test [4]; 16.1 µM (inactive) in test [5]; > 100 µM (inactive) in [6]. Besides, the GI50 in [7] is > 100 µM (inactive); in test [8], 45.3 µM (inactive); in [9], 37.5 µM (inactive); in test [10] it was 75.2 µM; in test [11], > 100 µM (inactive); in test [12], > 100 µM (inactive). Moreover, the GI50 was 67 µM (inactive) in [20]; > 100 µM (inactive) in test [14]; > 100 µM (inactive) in test [15]; 81.5 µM (inactive) in [16]; > 100 µM (inactive) in [17]; > 100 µM (inactive) in test [18].

Take `N#Cc1nc(-c2cccnc2)oc1N`: the GI50 in test [1], in test [2], in test [4], in test [5], in [6] and in [7] was > 100 µM (inactive) in each case. Further, the GI50 in test [8] is > 100 µM (inactive); in [9] it was > 100 µM (inactive); in test [10], more than 100 µM; in test [11], > 100 µM (inactive); in test [13], > 100 µM (inactive); in [20], > 100 µM (inactive). In addition, the GI50 in test [14], in test [15], in test [16], in [17] and in test [18] was > 100 µM (inactive) in each case.

For `COc1ccc2c(c1)CCC1=C/C(=N\NC(N)=O)CCC12C` (configuration not stated), the GI50 in [1], in test [2], in test [3], in test [4], in [5] and in test [6] was > 10 µM (inactive) throughout. Also, the GI50 in [7] was > 10 µM (inactive); in [8] it was 9.62 µM (inactive); in test [9], > 10 µM (inactive); in [19] it was > 10 µM (inactive); in test [10] it was more than 10 µM; in test [12] it was > 10 µM (inactive). Besides, the GI50 in [13] was > 10 µM (inactive); in test [14], 7.1 µM (inactive); in [15], > 10 µM (inactive); in [16] it was > 10 µM (inactive); in [18], 5.24 µM (inactive).

As for `C=CC1(C)CCC2C(=CCC3C2(C)CC(O)C(O)C3(C)COC2OC(CO)C(O)C(O)C2O)C1` (configuration not stated), the GI50 in test [1] is > 100 µM (inactive); in test [3], > 100 µM (inactive); in test [4] it was 44.8 µM (inactive); in test [6], > 100 µM (inactive); in test [7], > 100 µM (inactive); in [8], 57.9 µM (inactive). Further, the GI50 in test [9] is > 100 µM (inactive); in test [19], > 100 µM (inactive); in [10], more than 100 µM; in test [12], > 100 µM (inactive); in test [13] it was > 100 µM (inactive); in test [20], > 100 µM (inactive). Moreover, the GI50 in [14], in [15], in test [16], in [17] and in test [18] was > 100 µM (inactive) throughout.
